Measurements from patent US11214803B2, “Modulators of YAP1 expression” (Ionis Pharmaceuticals, Inc., priority 2019, dated 2022).
Strand notation (5' to 3'): a small letter for the sugar, then the base; units joined by * are phosphorothioate-linked, units joined directly phosphodiester-linked; [ ] holds rarer units or linkages, { } end groups; capitals alone tell only the bases. e = 2'-O-(2-methoxyethyl) (MOE); k = constrained ethyl (cEt); [5mC] = 5-methylcytosine; d = 2'-deoxy (DNA); m = 2'-O-methyl

Tested on: Yap1 mRNA
Assay: Dose-dependent inhibition of human Yap1 in SNU-449 cells (Example 9, RTS36584)
Assay type: cell-based
Conditions: free uptake; for % UTC (Yap1 mRNA): approximately 48 hours; for IC50: linear regression on a log/linear plot
Outline: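 SNU-449 cells (10,000/well) took up modified oligonucleotides by free uptake at a range of doses for about 48 h. Yap1 mRNA was quantified with primer-probe set RTS36584, normalised to RIBOGREEN total RNA and expressed as % untreated control; IC50 from linear regression on log/linear plot.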

Substance | % UTC (Yap1 mRNA) (31.3 nM) [% UTC] | % UTC (Yap1 mRNA) (125.0 nM) [% UTC] | % UTC (Yap1 mRNA) (500.0 nM) [% UTC] | % UTC (Yap1 mRNA) (2000.00 nM) [% UTC] | IC50 [nM]
1200861 (kT*kT*kA*dA*dA*mG*dT*dG*dT*dA*dT*dG*dT*k[5mC]*kA*kG; antisense) [compound 1200861] | 74 | 43 | 17 | 4 | 100
1198460 (kG*kA*dA*dA*dT*dT*dG*dT*d[5mC]*dT*d[5mC]*eA*kT*eG*k[5mC]*e[5mC]; antisense) [compound 1198460] | 60 | 49 | 28 | 11 | 100
1198290 (kT*kG*kG*dA*dA*dA*dT*dT*dG*dT*d[5mC]*dT*k[5mC]*eA*kT*eG; antisense) [compound 1198290] | 60 | 39 | 20 | 10 | 100
1198638 (kA*kG*dA*dG*dT*dA*dT*dG*dT*dG*dG*d[5mC]*kA*eA*kT*eA; antisense) [compound 1198638] | 70 | 42 | 13 | 4 | 100
1198289 (kG*kG*kA*dA*dA*dT*dT*dG*dT*d[5mC]*dT*d[5mC]*kA*eT*kG*e[5mC]; antisense) [compound 1198289] | 72 | 41 | 18 | 9 | 100
1198510 (k[5mC]*kT*d[5mC]*dT*dT*dA*dT*dA*dT*dG*dG*eT*kT*eT*kT*eG; antisense) [compound 1198510] | 71 | 44 | 18 | 6 | 100
1197217 (kT*kT*kA*dA*dA*dG*dT*dG*dT*dA*dT*dG*dT*k[5mC]*kA*kG) [compound 1197217] | 66 | 39 | 14 | 4 | 100
1198570 (kG*k[5mC]*kA*d[5mC]*dT*dT*dT*dT*dA*d[5mC]*dA*dT*kT*kA*kG*eG) [compound 1198570] | 58 | 33 | 16 | 9 | 40
1198352 (kT*kG*kT*dA*dT*dG*dT*d[5mC]*dA*dG*dA*dA*kG*eA*kG*eT; antisense) [compound 1198352] | 58 | 29 | 10 | 3 | 40
1198877 (kT*kT*dA*dA*dA*dG*dT*dG*dT*dA*dT*kG*eT*k[5mC]*eA*kG; antisense) [compound 1198877] | 62 | 32 | 13 | 5 | 50
1198918 (kG*k[5mC]*dA*d[5mC]*dT*dT*dT*dT*dA*d[5mC]*dA*kT*dT*kA*dG*kG) [compound 1198918] | 60 | 33 | 13 | 9 | 50
1197229 (kG*kG*kA*dA*mA*dT*dT*dG*dT*d[5mC]*dT*d[5mC]*dA*kT*kG*k[5mC]; antisense) [compound 1197229] | 54 | 32 | 16 | 7 | 30
1198616 (kT*kT*kT*dA*dA*dA*dG*dT*dG*dT*dA*dT*kG*kT*k[5mC]*eA; antisense) [compound 1198616] | 78 | 46 | 18 | 5 | 100
1198614 (kT*kA*kA*dA*dG*dT*dG*dT*dA*dT*dG*dT*k[5mC]*kA*kG*eA; antisense) [compound 1198614] | 69 | 26 | 3 | 1 | 100
1198412 (kT*dT*dA*dG*dG*dA*dT*dG*d[5mC]*dA*dT*kG*eG*kT*eT*kT; antisense) [compound 1198412] | 73 | 54 | 33 | 15 | 200
1198788 (kA*eA*kG*dT*dG*dT*dA*dT*dG*dT*d[5mC]*dA*eG*eA*kA*kG) [compound 1198788] | 64 | 30 | 7 | 2 | 100
